Laboratory results reported in US6846845B2, “Heat shock protein inducer” (Eisai Co., Ltd., priority 2002, dated 2005).

Key:
Format in all cases: in vivo, rat
HSP70 = experiment: Effect of chelerythrine pretreatment on GGA-induced HSP70 expression in the heart (Western immunoblotting), Example 2; details: 24 h after GGA 200 mg/kg oral or vehicle; chelerythrine 5 mg/kg i.v. pretreatment, FIG. 8
Experimental: (§1) Male Sprague-Dawley rats (220-250 g) were used. GGA, as an emulsion with 5% gum arabic and 0.008% tocopherol, was given orally at a dose of 200 mg/kg. Rats were classified into 4 groups. FIG. 7 is a diagrammatic representation of experimental protocol. […] Twenty-four hours after oral administration of GGA or vehicle, rats were anesthetized (sodium pentobarbital, 50 mg/kg IP) and heparinized (500 IU/kg IP). Hearts were excised, immediately frozen in liquid nitrogen, and stored at −70° C. until use for Western blot analysis (n=4 for each group). […]
(§2) To analyze the expression of HSP70, the frozen heart samples were homogenized with SDS sample buffer (pH 6.8, 20% glycerol, 6% SDS, 0.12M Tris), centrifuged and boiled (Maloyan A, Palmon A, Horowitz M. Heat acclimation increases the basal HSP70 level and alters its production dynamics during heat stress. Am J Physiol. 1999; 276:R1506-R1515.). […] The total protein concentration of heart was quantified by the Bradford method (Bradford MM. A rapid and sensitive method for quantitation of microgram quantities of protein utilizing the principle of protein-dye binding. Anal. Biochem. 1976;72:248-254). […] The proteins were detected by ECL with exposure to Hyperfilm (Amersham Pharmacia). The amount of protein on the immunoblots was quantified using National Institutes of Health image software. […]

[1] = test system: heat shock factor 1 (HSF1); experiment: HSF1 phosphorylation and translocation in cytosolic and nuclear heart fractions (Western immunoblotting); details: 24 h after GGA 200 mg/kg oral or vehicle; chelerythrine 5 mg/kg i.v. pretreatment, FIG. 9
Experimental: as §1, §2

myocardial cells = experiment: Electron microscope findings in left ventricular papillary muscle after ischemia/reperfusion; details: GGA-treated rats, 20 min no-flow ischemia and 30 min reperfusion
Experimental: After 30 minutes of reperfusion […] 20 minutes of no-flow ischemia, the papillary muscle of the left ventricle was immediately removed from the GGA-treated and Control hearts, and cut into small blocks. The tissue blocks were then fixed in a cacodylate buffered (pH 7.4) solution containing 2.5% glutaraldehyde and paraformaldehyde at 4° C. for 2 hours, and postfixed in a cocodylate buffered (pH 7.4) solution containing 2% osmium tetroxide and 0.5% potassium ferrocyanide at 4° C. for 2 hours. The tissue blocks were then dehydrated in ethanol and embedded in epoxy resin. Ultra-thin sections were stained with uranyl acetate and lead cistate, and were viewed under a transmission electron microscope (JOEL-100CX, Tokyo).

Compound: CC(=O)CCC=C(C)CCC=C(C)CCC=C(C)CCC=C(C)C [GGA, 6, 10, 14, 18-tetramethyl-5,9, 13, 17-nonadecatetraen-2-one]
- HSP70 expression in the heart (relative density to control group) (HSP70): increased
- amount of phosphorylated form of HSF1 in the nuclear fraction [1]: increased
- microstructure of myocardial cells by transmission electron microscopy (myocardial cells): preserved microstructurally
